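Dose response: 5 concentrations. Exposure: 48 h. Format: 96-well plates. Endpoint: linear interpolation; highest concentration if not reached. GI50 marks 50% less growth.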 Active and inactive are the calls of the source. Cut-off read from the data, not from the text of the source: active = GI50 up to about 1.1 µM and inactive = higher.
Legend:
Test in all cases: NCI anticancer screen, dose series, 48 h
SNB-75 = test system: SNB-75
A549 = test system: A549
T47D = test system: T47D
NCI-H460 = test system: NCI-H460
HL-60 = test system: HL-60
HT-29 = test system: HT-29
HCT-116 = test system: HCT-116
SK-MEL-5 = test system: SK-MEL-5
MCF7 = test system: MCF7
SR = test system: SR
U-251 = test system: U-251
HCC 2998 = test system: HCC 2998
UACC-257 = test system: UACC-257
MDA-N = test system: MDA-N
LOX IMVI = test system: LOX IMVI
HCT-15 = test system: HCT-15
MDA-MB-435 = test system: MDA-MB-435
ACHN = test system: ACHN
UO-31 = test system: UO-31
SF-539 = test system: SF-539

| SMILES | GI50 (SNB-75) | GI50 (A549) | GI50 (T47D) | GI50 (NCI-H460) | GI50 (HL-60) | GI50 (HT-29) | GI50 (HCT-116) | GI50 (SK-MEL-5) | GI50 (MCF7) | GI50 (SR) | GI50 (U-251) | GI50 (HCC 2998) | GI50 (UACC-257) | GI50 (MDA-N) | GI50 (LOX IMVI) | GI50 (HCT-15) [µM] | GI50 (MDA-MB-435) | GI50 (ACHN) | GI50 (UO-31) | GI50 (SF-539) |
| --- | --- | --- | --- | --- | --- | --- | --- | --- | --- | --- | --- | --- | --- | --- | --- | --- | --- | --- | --- | --- |
| O=C(Nc1ccccc1)N(CCCCN(Cc1ccccc1)C(=O)Nc1ccccc1)Cc1ccccc1 | 27.7 µM (inactive) | 28.8 µM (inactive) | 25.9 µM (inactive) | > 100 µM (inactive) | > 100 µM (inactive) | 74.5 µM (inactive) | 30.1 µM (inactive) | > 100 µM (inactive) | 92 µM (inactive) | 44.3 µM (inactive) | > 100 µM (inactive) | > 100 µM (inactive) | > 100 µM (inactive) | > 100 µM (inactive) | > 100 µM (inactive) | > 100 | > 100 µM (inactive) | > 100 µM (inactive) | 40 µM (inactive) | – |
| CN(c1c(Cl)cccc1Cl)S(=O)(=O)c1ccccc1[N+](=O)[O-] | > 100 µM (inactive) | > 100 µM (inactive) | > 100 µM (inactive) | > 100 µM (inactive) | > 10 µM (inactive) | > 100 µM (inactive) | > 100 µM (inactive) | – | > 100 µM (inactive) | > 100 µM (inactive) | > 100 µM (inactive) | > 100 µM (inactive) | > 100 µM (inactive) | > 100 µM (inactive) | > 100 µM (inactive) | > 100 | > 100 µM (inactive) | > 100 µM (inactive) | > 100 µM (inactive) | > 100 µM (inactive) |
| CCOC(=O)c1c(SCCCN2CCCCC2)n(-c2ccccc2)c(=S)n(-c2ccccc2)c1=O | – | 17.3 µM (inactive) | 16.7 µM (inactive) | – | 2.62 µM (inactive) | 20.3 µM (inactive) | 12.4 µM (inactive) | 16.4 µM (inactive) | 12.1 µM (inactive) | 22 µM (inactive) | 16.9 µM (inactive) | 17.3 µM (inactive) | – | 15 µM (inactive) | – | 17.4 | 15.8 µM (inactive) | 20.6 µM (inactive) | 15.5 µM (inactive) | 14.8 µM (inactive) |
| O=C1N[C@@H]2c3c(Br)sc(Br)c3C(=O)[C@@H]2O1 | 6.14 µM (inactive) | 16.4 µM (inactive) | 9.18 µM (inactive) | 8.67 µM (inactive) | 0.743 µM (active) | 1.9 µM (inactive) | – | 6.59 µM (inactive) | 3.98 µM (inactive) | 1.81 µM (inactive) | 2.39 µM (inactive) | 3.69 µM (inactive) | 3.32 µM (inactive) | 2.44 µM (inactive) | 1.83 µM (inactive) | 1.91 | 2.47 µM (inactive) | 1.85 µM (inactive) | 10.1 µM (inactive) | 10.3 µM (inactive) |
| Cc1ccc(CS(=O)(=O)C/N=C2\Sc3ccccc3N\C2=C/C(=O)c2ccc(Cl)cc2)cc1 | 3.86 µM (inactive) | > 10 µM (inactive) | 1.71 µM (inactive) | – | 1 µM (active) | > 10 µM (inactive) | > 10 µM (inactive) | > 10 µM (inactive) | 0.703 µM (active) | > 10 µM (inactive) | > 10 µM (inactive) | > 10 µM (inactive) | > 10 µM (inactive) | > 10 µM (inactive) | > 10 µM (inactive) | > 10 | > 10 µM (inactive) | > 10 µM (inactive) | – | > 10 µM (inactive) |
| C/C=C(\C)C(=O)OC1/C=C(\C)CC/C=C(\C)CC2OC(=O)C(C)(OC(C)=O)C12 (centres undefined) | > 100 µM (inactive) | > 100 µM (inactive) | > 100 µM (inactive) | > 100 µM (inactive) | 59.7 µM (inactive) | > 100 µM (inactive) | > 100 µM (inactive) | > 100 µM (inactive) | > 100 µM (inactive) | > 100 µM (inactive) | > 100 µM (inactive) | > 100 µM (inactive) | > 100 µM (inactive) | > 100 µM (inactive) | > 100 µM (inactive) | > 100 | > 100 µM (inactive) | > 100 µM (inactive) | – | > 100 µM (inactive) |
| Cc1cn(C2CC(N=[N+]=[N-])C(CO[Si](C)(C)C(C)(C)C)O2)c(=O)[nH]c1=O (centres undefined) | 19.3 µM (inactive) | 27.2 µM (inactive) | 29.4 µM (inactive) | – | 28.7 µM (inactive) | 16.8 µM (inactive) | 16.1 µM (inactive) | 18.5 µM (inactive) | 18 µM (inactive) | 23.3 µM (inactive) | 18.1 µM (inactive) | 12.6 µM (inactive) | 21.6 µM (inactive) | 17 µM (inactive) | 16.9 µM (inactive) | 18.3 | 18 µM (inactive) | 21.8 µM (inactive) | 16.6 µM (inactive) | 18 µM (inactive) |
| C=CCOc1ccc(C2C(C(=O)OCC)C(=O)CC(C)(O)C2C(=O)OCC)cc1OC (centres undefined) | > 100 µM (inactive) | > 100 µM (inactive) | > 100 µM (inactive) | > 100 µM (inactive) | > 100 µM (inactive) | > 100 µM (inactive) | > 100 µM (inactive) | > 100 µM (inactive) | > 100 µM (inactive) | > 100 µM (inactive) | > 100 µM (inactive) | > 100 µM (inactive) | > 100 µM (inactive) | > 100 µM (inactive) | > 100 µM (inactive) | > 100 | > 100 µM (inactive) | > 100 µM (inactive) | > 100 µM (inactive) | > 100 µM (inactive) |

From ChEMBL document CHEMBL1201862, “PubChem BioAssay data set” (2004)
